Test results reported in PMC8669712, “G Protein-Coupled Receptor GPR35 Suppresses Lipid Accumulation in Hepatocytes” (ACS Pharmacology & Translational Science, 2021).
Several values for one entry are separate records, joined by “and”; a condition that tells them apart may be missing. Equal entries are not always repeated. Where two headings read alike, the source gives them in different places. One block for each compound: values may come before it. *1 amine or outer side, *2 acyl side, *3 side chain or, on linkers, in order; H or OH if unused. Where a SMILES comes first, the peptide text is derived from it. Bridges are numbered along the chain shown (N, C = ends). [ ]: non-standard residue; d: D form. The star is where a group is joined. Leu(3R-OH,Nα-propionyl) = CCC(=O)N[C@H](C(=O)*)[C@H](O)C(C)C; X1 = CC(C)[C@@H](O[*:3])[C@H](N[*:1])C(=O)[*:2]; NMeT = CN[C@H](C(=O)O)[C@@H](C)O; dPhLac = O=C(O)[C@H](O)Cc1ccccc1; NMeA = CN[C@@H](C)C(=O)O; NMeDha = C=C(NC)C(=O)O

Assays:
[1] = target: mouse GPR35 (Mus musculus, UniProt Q9ES90); test: β-arrestin-based interaction assay, agonist potency at mouse GPR35; assay type: cell-based
[2] = tested on: HepG2 cells; test: Label-free cellular impedance assay (xCELLigence) in HepG2 cells; assay type: cell-based, human; conditions: for effect of signaling pathway inhibitor pretreatment on the impedance response to lodoxamide: HepG2 cells, FR900359 1 × 10^–7 M, Pertussis toxin 100 ng/mL, Y27632 1 × 10^–5 M
Description: HepG2 cells were seeded onto xCELLigence E plates (2 × 10^4 cells/well) and incubated for 24 h at 37 °C. To evaluate GPR35 activation and its downstream G protein signaling, HepG2 cells or primary mouse hepatocytes were exposed to GPR35 antagonists or G protein inhibitors 1 h (overnight for Pertussis toxin) prior to GPR35 agonist stimulation. After the addition of GPR35 agonist or vehicle control, the impedance (represented as “cell index”) was recorded every 30 s over a 2 h period using xCELLigence RTCA (Agilent). Each experiment was repeated at least three times.

[3] = tested on: GPR35 genome-edited HepG2 clones; test: Label-free cellular impedance assay in GPR35 genome-edited HepG2 clones 19 and 27; assay type: cell-based, human
Source text: Expression of full-length mRNA from the GPR35 gene was eliminated using a dual synthetic gRNA/RNP approach[43] with one guide cutting the intron and one in the exon region to generate a nonfunctional GPR35 protein. The gRNAs were designed with the CRISPR Finder (Welcome Sanger Institute). HepG2 cells were transfected with the Neon Transfection System from Thermo Fisher Scientific (Waltham, MA), according to the manufacturer’s instructions. Briefly, CrRNA and tracrRNA were annealed to gRNA at 95 °C for 5 min. Next, cells were transfected with gRNA, Cas9, and the electroporation enhancer, according to the manufacturer’s instructions. All crRNAs, tracrRNA, SpCas9 nuclease, and the electroporation enhancer were purchased from Integrated DNA Technologies (Coralville, IA). Transfected cells were plated and analyzed for editing efficiency 24–48 h after electroporation. Single-cell clones were generated by single-cell FACS sorting. Clones were expanded and to access editing efficiency, genomic DNA from cell clones was extracted and subjected to PCR to confirm the genome deletion. To further quantify and capture the genomic DNA deletion, PCR primers listed in Table S1 were designed to amplify the genomic DNA surrounding the target site. The PCR primers were linked to the sequences of the Illumina Nextera adapters. The amplified PCR products were subjected to paired-end sequencing using NextSeq500 from Illumina using paired-end chemistry with a 150-bp read length. In addition, mRNA from KO clones was isolated and subjected to RT-PCR. To further confirm the abrogation of GPR35 activation in CRISPR KO clones, KO cells were seeded onto xCELLigence E plates (2 × 10^4 cells/well) for 24 h at 37 °C prior to the treatment of GPR35 agonists. The impedance was recorded using xCELLigence RTCA. […]
HepG2 cells were seeded onto xCELLigence E plates (2 × 10^4 cells/well) and incubated for 24 h at 37 °C. […] After the addition of GPR35 agonist or vehicle control, the impedance (represented as “cell index”) was recorded every 30 s over a 2 h period using xCELLigence RTCA (Agilent). […]

[4] = tested on: HepG2 cells; test: Oil Red O staining of LXR (T0901317)-induced lipid accumulation in HepG2 cells; assay type: cell-based, human; conditions: 4 × 10^–6 M, 48 h
Description: Human hepatocellular carcinoma HepG2 cells were grown in Minimum Essential Medium (MEM) supplemented with 10% fetal bovine serum (FBS), 2 mM L-glutamine, 1× non-essential amino acid, 1 mM sodium pyruvate, and 1× penicillin/streptomycin. Materials for cell culture were all from Sigma-Aldrich (St. Louis, MO) or Thermo Fisher Scientific (Waltham, MA). Cells were incubated in a humidified CO2 incubator at 37 °C. […] Cells were seeded onto a 12-well plate (1 × 10^5 cells/well) for 24 h prior to drug treatment. […] Lipid accumulation was measured by Oil Red O staining.

[5] = tested on: GPR35 knock-out clones of HepG2 cells; test: Oil Red O lipid accumulation in GPR35 knock-out clones of HepG2 cells; assay type: cell-based, human; conditions: T0901317 4 × 10^–6 M, 48 h, higher baseline
Description: Human hepatocellular carcinoma HepG2 cells were grown in Minimum Essential Medium (MEM) supplemented with 10% fetal bovine serum (FBS), 2 mM L-glutamine, 1× non-essential amino acid, 1 mM sodium pyruvate, and 1× penicillin/streptomycin. Materials for cell culture were all from Sigma-Aldrich (St. Louis, MO) or Thermo Fisher Scientific (Waltham, MA). Cells were incubated in a humidified CO2 incubator at 37 °C. Experiments were performed when cell confluence reached 80%. Cells were seeded onto a 12-well plate (1 × 10^5 cells/well) for 24 h prior to drug treatment. […] Expression of full-length mRNA from the GPR35 gene was eliminated using a dual synthetic gRNA/RNP approach[43] with one guide cutting the intron and one in the exon region to generate a nonfunctional GPR35 protein. The gRNAs were designed with the CRISPR Finder (Welcome Sanger Institute). […] Transfected cells were plated and analyzed for editing efficiency 24-48 h after electroporation. […] To further quantify and capture the genomic DNA deletion, PCR primers listed in Table S1 were designed to amplify the genomic DNA surrounding the target site. […] The amplified PCR products were subjected to paired-end sequencing using NextSeq500 from Illumina using paired-end chemistry with a 150-bp read length. […] The impedance was recorded using xCELLigence RTCA. […] Lipid accumulation was measured by Oil Red O staining.

[6] = tested on: hepatocytes from wild-type mice; test: Oil Red O lipid accumulation in hepatocytes from wild-type mice; assay type: cell-based, mouse; conditions: 48 h; for EC50: hepatocytes from wild-type mice, co-incubation with T0901317 5 × 10^–6 M, read-out: EC50 for suppression of LXR-mediated lipid accumulation
Description: All mice were bred as WT or homozygous onto a C57BL/6N background. Animals were cared for in accordance with national guidelines on animal experimentation. All animal experiments were conducted under a home office license held by the authors. WT, humanized GPR35a, or KO male mice at 3–4 months of age were used in this study. These mice were fed ad libitum with a standard mouse chow diet. Briefly, mouse primary hepatocytes were isolated using a two-step collagenase perfusion technique.[45] Twelve-well plates or xCELLigence E plates were coated with rat tail collagen I solution (Thermo Fisher Scientific) overnight at 37 °C and washed with PBS. Isolated primary hepatocytes were seeded onto 12-well plates (8 × 10^4 cells/well) or xCELLigence E plates (2 × 10^4 cells/well) in Wiliam’s E medium (Thermo Fisher Scientific) supplemented with 10% fetal bovine serum (FBS) and 1× penicillin/streptomycin. Cells were maintained for 7 days with a fresh medium change every other day. […] Human GPR35 activation was examined using xCELLigence RTCA assay. To access the impact of GPR35 agonists on the lipid accumulation, WT and humanized GPR35 hepatocytes were incubated with T0901317 and/or GPR35 agonists/antagonists, as indicated (in DMEM medium containing 5% FBS and 1.5% BSA) for 48 h. Alternatively, GPR35 KO hepatocytes were incubated with drugs, as indicated for 5 days. […] After each drug treatment, hepatocytes were stained with Oil Red O and quantified as described. […]
(§1) Lipid accumulation was measured by Oil Red O staining. […] After PBS washing, Oil Red O was extracted from cells using 150 μl of isopropanol and OD510 nm measured. […] These cells were then stained with Hoechst 33342 (1 μg/mL) and the fluorescence intensity of Hoechst (represents the DNA content in cells) was measured using a CLARIOstar plate reader (BMG LABTECH). Oil Red O accumulation was corrected for differences in DNA content and expressed as relative absorbency, taking the control condition (treated with vehicle only) as 1.

[7] = tested on: hepatocytes from GPR35 knock-out mice; test: Oil Red O lipid accumulation in hepatocytes from GPR35 knock-out mice
Description: All mice were bred as WT or homozygous onto a C57BL/6N background. Animals were cared for in accordance with national guidelines on animal experimentation. All animal experiments were conducted under a home office license held by the authors. WT, humanized GPR35a, or KO male mice at 3–4 months of age were used in this study. These mice were fed ad libitum with a standard mouse chow diet. Briefly, mouse primary hepatocytes were isolated using a two-step collagenase perfusion technique.[45] Twelve-well plates or xCELLigence E plates were coated with rat tail collagen I solution (Thermo Fisher Scientific) overnight at 37 °C and washed with PBS. […] After each drug treatment, hepatocytes were stained with Oil Red O and quantified as described. […]
as §1

[8] = tested on: hepatocytes from hGPR35a-HA-expressing mice; test: Oil Red O lipid accumulation in hepatocytes from hGPR35a-HA-expressing mice; assay type: cell-based, mouse; conditions: T0901317 8 × 10^–6 M
Description: All mice were bred as WT or homozygous onto a C57BL/6N background. Animals were cared for in accordance with national guidelines on animal experimentation. All animal experiments were conducted under a home office license held by the authors. WT, humanized GPR35a, or KO male mice at 3–4 months of age were used in this study. These mice were fed ad libitum with a standard mouse chow diet. Briefly, mouse primary hepatocytes were isolated using a two-step collagenase perfusion technique.[45] Twelve-well plates or xCELLigence E plates were coated with rat tail collagen I solution (Thermo Fisher Scientific) overnight at 37 °C and washed with PBS. Isolated primary hepatocytes were seeded onto 12-well plates (8 × 10^4 cells/well) or xCELLigence E plates (2 × 10^4 cells/well) in Wiliam’s E medium (Thermo Fisher Scientific) supplemented with 10% fetal bovine serum (FBS) and 1× penicillin/streptomycin. Cells were maintained for 7 days with a fresh medium change every other day. […] Human GPR35 activation was examined using xCELLigence RTCA assay. To access the impact of GPR35 agonists on the lipid accumulation, WT and humanized GPR35 hepatocytes were incubated with T0901317 and/or GPR35 agonists/antagonists, as indicated (in DMEM medium containing 5% FBS and 1.5% BSA) for 48 h. Alternatively, GPR35 KO hepatocytes were incubated with drugs, as indicated for 5 days. In the T0901317 pretreatment model, human GPR35 hepatocytes were stimulated with T0901317 for 2 days and then further treated with lodoxamide for a further 3 days. After each drug treatment, hepatocytes were stained with Oil Red O and quantified as described. Each experiment was repeated at least three times.
Lipid accumulation was measured by Oil Red O staining. A working solution of Oil Red O was prepared, as described with modification.[46] After drug treatment, cells were washed with PBS and fixed with formalin solution for 1 h at 4 °C. Then, cells were stained with Oil Red O working solution for 10 min at room temperature. After PBS washing, Oil Red O was extracted from cells using 150 μl of isopropanol and OD510 nm measured. After the lipid extraction, cells were further soaked in PBS overnight at 4 °C. These cells were then stained with Hoechst 33342 (1 μg/mL) and the fluorescence intensity of Hoechst (represents the DNA content in cells) was measured using a CLARIOstar plate reader (BMG LABTECH). Oil Red O accumulation was corrected for differences in DNA content and expressed as relative absorbency, taking the control condition (treated with vehicle only) as 1.

[9] = target: human GPR35a (Homo sapiens, UniProt Q9HC97); test: β-arrestin-based interaction assay, agonist potency at human GPR35a; assay type: cell-based
Sequence of human GPR35a (Q9HC97 whole entry): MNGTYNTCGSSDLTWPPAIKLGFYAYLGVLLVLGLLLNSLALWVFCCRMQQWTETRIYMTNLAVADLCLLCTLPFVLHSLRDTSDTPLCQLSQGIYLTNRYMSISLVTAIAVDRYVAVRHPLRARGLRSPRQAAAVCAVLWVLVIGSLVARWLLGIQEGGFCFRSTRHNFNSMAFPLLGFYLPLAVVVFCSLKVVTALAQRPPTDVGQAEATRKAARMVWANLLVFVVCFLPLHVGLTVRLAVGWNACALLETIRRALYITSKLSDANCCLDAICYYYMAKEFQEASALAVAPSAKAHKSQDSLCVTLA

Sequence of mouse GPR35 (Q9ES90 whole entry): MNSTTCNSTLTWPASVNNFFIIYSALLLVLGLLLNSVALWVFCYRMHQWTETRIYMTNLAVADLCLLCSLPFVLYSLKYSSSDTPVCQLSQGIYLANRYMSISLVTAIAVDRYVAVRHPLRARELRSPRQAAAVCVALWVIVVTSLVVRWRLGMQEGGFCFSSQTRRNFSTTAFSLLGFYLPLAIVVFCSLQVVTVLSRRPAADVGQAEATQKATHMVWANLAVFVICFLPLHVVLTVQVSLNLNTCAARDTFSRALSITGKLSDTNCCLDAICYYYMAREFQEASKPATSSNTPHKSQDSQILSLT

Compound: CCCOc1ccccc1-c1nc2nn[nH]c2c(=O)[nH]1 [zaprinast]
EC50 [1]: 661 nM
impedance signal in parental HepG2 cells ([2]; 1 × 10^–5 M): produced positive signals
impedance signal in GPR35 genome-edited clones 19 and 27 ([3]; 1 × 10^–5 M): not in either clone 19 or 27

Compound: Nc1ncnc2c1ncn2[C@@H]1O[C@H](COP(=O)(O)OP(=O)(O)OP(=O)(O)O)[C@@H](O)[C@H]1O [ATP]
impedance response to ATP in wild-type HepG2 cells and GPR35 genome-edited clones ([3]; P2Y purinoceptor stimulus, control of responsiveness): enhanced electrical conductance

Compound: Pertussis toxin
effect of signaling pathway inhibitor pretreatment on the impedance response to lodoxamide [2]: small although a statistically nonsignificant reduction

Compound: C=C1C(=O)N[C@@H](C)C(=O)N(C)[C@@H](C)C(=O)N[C@@H]([C@H](OC(=O)[C@@H](NC(=O)CC)[C@H](O)C(C)C)C(C)C)C(=O)N(C)[C@@H]([C@@H](C)OC)C(=O)O[C@H](C(C)C)[C@H](NC(C)=O)C(=O)O[C@H](Cc2ccccc2)C(=O)N1C [FR900359] (Ac-[X1][dPhLac][NMeDha]A[NMeA][X1](Leu(3R-OH,Nα-propionyl))[NMeT](Me); ester 1-C)
effect of signaling pathway inhibitor pretreatment on the impedance response to lodoxamide [2]: without effect

Compound: O=S(=O)(c1ccccc1)N(CC(F)(F)F)c1ccc(C(O)(C(F)(F)F)C(F)(F)F)cc1 [T0901317, N-(2,2,2-trifluoroethyl)-N-[4-[2,2,2-trifluoro-1-hydroxy-1-(trifluoromethyl)ethyl]phenyl]benzenesulfonamide]
deposition of triglycerides and other lipids (Oil Red O) [4]: substantially increased
lipid accumulation on LXR activation in GPR35 knock-out clones [5]: still able to promote lipid accumulation
lipid accumulation in mouse hepatocytes ([6]; wild-type mice, 5 × 10^–6 M): able to promote lipid accumulation
effect of T0901317 on lipid accumulation in hepatocytes from GPR35 knock-out mice ([7]; equivalent time of exposure as in wild-type hepatocytes (48 h)): modest
lipid accumulation (Oil Red O) in hepatocytes from hGPR35a-HA-expressing mice [8]: clear increase in lipid accumulation

ratio (log) (H/M) ([9]; log ratio of potency at human GPR35a over mouse GPR35): 1.02 ± 0.06
EC50 ([9]; β-arrestin-based interaction assay, read-out: human GPR35a, pEC50 (converted)): 14.8 nM
fold more potent than lodoxamide at mouse GPR35 ([1]; bufrolin versus lodoxamide): more than 10 fold
fold lower potency at mouse GPR35 than at human GPR35 ([1]; mouse versus human GPR35): ~10 fold
EC50 ([1]; read-out: EC50 at the mouse GPR35): < 100 nM
EC50 ([1]; β-arrestin-based interaction assay, read-out: mouse GPR35, pEC50 (converted)): 155 nM
suppression of lipid accumulation induced by T0901317 in hepatocytes from GPR35 knock-out mice ([7]; treatment for 5 days): did not suppress lipid accumulation
Compound: CCCCc1cc2c(=O)cc(C(=O)O)[nH]c2c2c(=O)cc(C(=O)O)[nH]c12 [bufrolin, 6-butyl-4,10-dioxo-1,7-dihydro-1,7-phenanthroline-2,8-dicarboxylic acid]
EC50 ([6]; Mus musculus, Hepatocyte): 78.7 nM
EC50 [6]: 79 nM and ~80 nM

Compound: C[C@@H](N)[C@H]1CC[C@H](C(=O)Nc2ccncc2)CC1 [Y27632]
effect of signaling pathway inhibitor pretreatment on the impedance response to lodoxamide [2]: all but eliminated
